Measurements: PubChem BioAssay AID2060511 (Molecular Pharmacology Branch, DTP, NCI, 2025)

Test system: 422866-222-R5-J1-PDC spheroids with HUVEC/MSC, viability
Assay: Anticancer human tumor 422866-222-R5-J1-PDC patient-derived pancreatic adenocarcinoma cell line growth inhibition [GQUAD]
Details: for IC50: curve of first compound; for viability, T/C: stronger effect = lower value; active means viability on the fitted dose curve at most 10% of control; inactive means the rest
Excerpt: DNA G-quadruplex Stabilizer Agents in Combinations in Complex Spheroids
A high-throughput screen of multi-cell type tumor spheroids was designed to identify active combinations of DNA G-quadruplex stabilizer agents and targeted small molecules. Complex spheroids include a stromal component modeled by human endothelial cells (HUVEC) and fibroblasts modeled by human mesenchymal stem cells (MSCs). The concentration ranges selected for each drug and investigational agent were based upon clinically achievable concentrations if the clinical Cmax of the agent was known.
Compounds. The drugs and investigational agents: pidnarulex (CX-5461; NSC782164), APTO-253 (NSC789042), BRACO-19 (NSC847499), peposertib (NSC802822), ceralasertib (NSC780249), elimusertib (NSC800525), camonsertib (NSC841442), AZD-1390 (NSC803789), olaparib (NSC753686), talazoparib (NSC767125), ART-558 (NSC835418), sotorasib (NSC818433), MRTX-1133 (NSC836407), SN-38 (NSC673596), topotecan (NSC609699), etoposide (NSC141540), doxorubicin (NSC123127), gemcitabine (NSC613327), 5-fluorouracil (NSC19893), paclitaxel (NSC125973), vemurafenib (NSC761431), panobinostat (NSC761190), R-306465 (JNJ-16241199; NSC773264), adavosertib (NSC754352), TP-3654 (NSC805149), carboplatin (NSC241240), KSQ-4279 (NSC840948), and staurosporine (NSC755774) were obtained from the National Cancer Institute (NCI) Developmental Therapeutics Program Chemical Repository (34). The FDA-approved anticancer drug set is available from the NCI Developmental Therapeutics Program. […] The stock solutions were prepared in dimethyl sulfoxide (DMSO, Sigma-Aldrich, St. Louis, MO, cat. D2650) at 800-fold the tested concentration and stored at -70 degrees C prior to their use. All drugs and investigational agents were tested over a range starting from a high concentration at or near the clinical Cmax and decreasing in half-log increments. If the clinical Cmax for an agent had not been determined, the highest concentration tested was 10 microM.
2.3 Cell Culture. All cells were maintained in an incubator at 37 degrees C and 5% CO2 with 95% humidity. The PDC lines were cultured according to standard operating procedures established by the NCI PDMR. All PDCs were thawed and cultured in Matrigel-coated flasks prepared with a working solution of 1X Ham's F-12 nutrient mix, without supplementation (Invitrogen, cat. 11765054), 100 U/mL penicillin-streptomycin (Invitrogen, cat. 15140122), and 2.5% Matrigel (Corning Inc., cat. 354248) for the first three passages. The 857933-349-R-J2-PDC line was cultured in 6C/Colon 1B media, which includes advanced DMEM/F-12 (Thermo Fisher Scientific, cat. 12634028), 10 mM HEPES (Thermo Fisher Scientific, cat. 15630080), 1X GlutaMAX supplement (Thermo Fisher Scientific, cat. 35050061), 0.1 mg/mL primocin (InvivoGen, cat. ant-pm-2), 10% defined fetal bovine serum, heat inactivated (HyClone Laboratories Inc., cat. SH30070.03HI), 50% L-WRN conditioned media (ATCC, cat. CRL-3276), 1.25 mM N-Acetyl-L-cysteine (Sigma-Aldrich, cat. A9165), 10 mM nicotinamide (Sigma-Aldrich, cat. N0636), 1X B-27 supplement (Thermo Fisher Scientific, cat. 17504044), 1X N-2 supplement (Thermo Fisher Scientific, cat. 17502048), 10 microM Y-27632 dihydrochloride (Tocris Bioscience, cat. 1254), and 50 ng/mL human EGF recombinant protein (Thermo Fisher Scientific, cat. PHG0311). The 485176-168-R4-J1-PDC line was cultured in Panc media, which includes all 6C/Colon 1B media components plus 100 ng/mL human FGF-10 (Thermo Fisher Scientific, cat. 100-26), 500 nM SB-431542 (Selleckchem, cat. S1067), and gastrin (Tocris, cat. 3006).
[…]

[1] = second compound 0.0316 µM, first compound 0.0316 µM
[2] = second compound 0.0316 µM, first compound 0.316 µM
[3] = second compound 0.1 µM, first compound 0.0316 µM
[4] = second compound 0.1 µM, first compound 0.316 µM
[5] = second compound 0.316 µM, first compound 0.0316 µM
[6] = second compound 0.316 µM, first compound 0.316 µM
[7] = second compound 1 µM, first compound 0.0316 µM
[8] = second compound 1 µM, first compound 0.316 µM
[9] = second compound 3.16 µM, first compound 0.0316 µM
[10] = second compound 3.16 µM, first compound 0.316 µM
[11] = second compound 10 µM, first compound 0.0316 µM
[12] = second compound 10 µM, first compound 0.316 µM
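Further: spheroids exposed to compounds for seven days before reading.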
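Wherever viability, T/C is given: percent viability relative to DMSO vehicle control taken as 100%.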

CCCS(=O)(=O)Nc1ccc(F)c(C(=O)c2c[nH]c3ncc(-c4ccc(Cl)cc4)cc23)c1F + Cc1cnc(CNC(=O)c2c(=O)c3ccc(N4CCCN(C)CC4)nc3n3c2sc2ccccc23)cn1
inactive: viability, T/C [1] 96.8% | viability, T/C (second compound 0.0316 µM, first compound 0.1 µM) 89.2% | viability, T/C [2] 117% | viability, T/C (second compound 0.0316 µM, first compound 1 µM) 109% | viability, T/C (second compound 0.0316 µM, first compound 3.16 µM) 145% | viability, T/C (second compound 0.0316 µM, first compound 10 µM) 54.9% | viability, T/C [3] 93.9% | viability, T/C (second compound 0.1 µM, first compound 0.1 µM) 87.3% | viability, T/C [4] 115% | viability, T/C (second compound 0.1 µM, first compound 1 µM) 92% | viability, T/C (second compound 0.1 µM, first compound 3.16 µM) 109% | viability, T/C (second compound 0.1 µM, first compound 10 µM) 84.7% | viability, T/C [5] 78.6% | viability, T/C (second compound 0.316 µM, first compound 0.1 µM) 90.4% | viability, T/C [6] 90% | viability, T/C (second compound 0.316 µM, first compound 1 µM) 115% | viability, T/C (second compound 0.316 µM, first compound 3.16 µM) 102% | viability, T/C (second compound 0.316 µM, first compound 10 µM) 86.6% | viability, T/C [7] 73.2% | viability, T/C (second compound 1 µM, first compound 0.1 µM) 80.7% | viability, T/C [8] 87.2% | viability, T/C (second compound 1 µM, first compound 1 µM) 110% | viability, T/C (second compound 1 µM, first compound 3.16 µM) 111% | viability, T/C (second compound 1 µM, first compound 10 µM) 86% | viability, T/C [9] 72.9% | viability, T/C (second compound 3.16 µM, first compound 0.1 µM) 80.9% | viability, T/C [10] 85.5% | viability, T/C (second compound 3.16 µM, first compound 1 µM) 93.7% | viability, T/C (second compound 3.16 µM, first compound 3.16 µM) 95.1% | viability, T/C (second compound 3.16 µM, first compound 10 µM) 88.7% | viability, T/C [11] 69.2% | viability, T/C (second compound 10 µM, first compound 0.1 µM) 76.2% | viability, T/C [12] 109% | viability, T/C (second compound 10 µM, first compound 1 µM) 86.8% | viability, T/C (second compound 10 µM, first compound 3.16 µM) 96% | viability, T/C (second compound 10 µM, first compound 10 µM) 94.2%
> 10 µM: IC50 (second compound 0.0316 µM) | IC50 (second compound 0.1 µM) | IC50 (second compound 0.316 µM) | IC50 (second compound 1 µM) | IC50 (second compound 3.16 µM) | IC50 (second compound 10 µM)

CC[C@@]1(O)C(=O)OCc2c1cc1n(c2=O)Cc2cc3c(CN(C)C)c(O)ccc3nc2-1 + Cc1cnc(CNC(=O)c2c(=O)c3ccc(N4CCCN(C)CC4)nc3n3c2sc2ccccc23)cn1
0.191 µM: IC50 (second compound 0.0316 µM)
inactive: viability, T/C (second compound 0.0316 µM, first compound 0.000999 µM) 97.1% | viability, T/C (second compound 0.0316 µM, first compound 0.00316 µM) 92.6% | viability, T/C (second compound 0.0316 µM, first compound 0.00999 µM) 94% | viability, T/C [1] 77.1% | viability, T/C (second compound 0.0316 µM, first compound 0.0999 µM) 51.4% | viability, T/C [2] 48.9% | viability, T/C (second compound 0.1 µM, first compound 0.000999 µM) 95.8% | viability, T/C (second compound 0.1 µM, first compound 0.00316 µM) 86.8% | viability, T/C (second compound 0.1 µM, first compound 0.00999 µM) 82.8% | viability, T/C [3] 70.8% | viability, T/C (second compound 0.1 µM, first compound 0.0999 µM) 69.6% | viability, T/C [4] 56.2% | viability, T/C (second compound 0.316 µM, first compound 0.000999 µM) 89.2% | viability, T/C (second compound 0.316 µM, first compound 0.00316 µM) 85% | viability, T/C (second compound 0.316 µM, first compound 0.00999 µM) 87.3% | viability, T/C [5] 80.6% | viability, T/C (second compound 0.316 µM, first compound 0.0999 µM) 80.9% | viability, T/C [6] 58.6% | viability, T/C (second compound 1 µM, first compound 0.000999 µM) 78.6% | viability, T/C (second compound 1 µM, first compound 0.00316 µM) 81.4% | viability, T/C (second compound 1 µM, first compound 0.00999 µM) 76.5% | viability, T/C [7] 81.4% | viability, T/C (second compound 1 µM, first compound 0.0999 µM) 83.6% | viability, T/C [8] 74.9% | viability, T/C (second compound 3.16 µM, first compound 0.000999 µM) 79.7% | viability, T/C (second compound 3.16 µM, first compound 0.00316 µM) 80.8% | viability, T/C (second compound 3.16 µM, first compound 0.00999 µM) 83.8% | viability, T/C [9] 81.5% | viability, T/C (second compound 3.16 µM, first compound 0.0999 µM) 90.9% | viability, T/C [10] 74.6% | viability, T/C (second compound 10 µM, first compound 0.000999 µM) 82.6% | viability, T/C (second compound 10 µM, first compound 0.00316 µM) 88.7% | viability, T/C (second compound 10 µM, first compound 0.00999 µM) 81.1% | viability, T/C [11] 83.2% | viability, T/C (second compound 10 µM, first compound 0.0999 µM) 88.4% | viability, T/C [12] 60.6%
> 0.316 µM: IC50 (second compound 0.1 µM) | IC50 (second compound 0.316 µM) | IC50 (second compound 1 µM) | IC50 (second compound 3.16 µM) | IC50 (second compound 10 µM)
